Assay results reported in PMC6337650 (Molecules, 2018).

Columns and labels:
L02 cells = test: MTT assay on normal liver cells L02; type: cell-based; settings: Homo sapiens, normal liver cells, 48 h, MTT, Table 2, read-out: IC50 Values (μM) L02
Protocol: (§1) The antiproliferative activity of the target compounds against a normal L02 cell line and the three different human cancer cell lines viz. colorectal (HCT-116), liver (BEL-7402) and liver (HepG2) were evaluated using a standard MTT-based colorimetric assay. All cell lines were obtained from the Key Laboratory of Natural Resources and Functional Molecules of the Changbai Mountain (Yanbian University, Jilin, China) and maintained in Dulbecco’s modified Eagle’s medium (DMEM) and RPMI Media 1640 (RPMI1640), supplemented with 10% fetal bovine serum (FBS) at 37 °C in a humidified atmosphere containing 5% CO2.
Cells were plated in 96-well plates at appropriate densities to ensure exponential growth throughout the experimental period (9 × 10^3 cells per well) and then allowed to adhere for 24 h. Cells were then treated for 48 h with four serial concentrations (1, 10, 50 and 100 µM) of each compound. […] After 48 h of incubation, 10 µL of MTT solution was added to each well to a final concentration of 2 mg/mL. Plates were then incubated for a further 4 h. After incubation, the MTT solution was removed and 150 µL of DMSO was added to each well for coloration. The plates were shaken vigorously for 10 min at room temperature to ensure complete solubilization. The optical density (OD) was read on a microplate reader (ELx800, BioTek, Highland Park, Winooski, VT, USA) at a wavelength of 492 nm and the data were subsequently analyzed. The percentage of cell growth inhibition was calculated from the following equation: Inhibitory rate (%) = [(1 − (ODtreated-ODblank)/(ODcontrol-ODblank)] × 100.(1)

HepG2 cells = test: MTT antiproliferative assay, HepG2; type: cell-based, human; settings: Homo sapiens, HepG2, 48 h, MTT, mean ± SD, n=3; for inhibition at 100 µM: read-out: % Growth Inhibition at 100 μM HepG2
Protocol: as §1
(§2) Cells were plated in 96-well plates at appropriate densities to ensure exponential growth throughout the experimental period (9 × 10^3 cells per well) and then allowed to adhere for 24 h. Cells were then treated for 48 h with four serial concentrations (1, 10, 50 and 100 µM) of each compound. 5-fluorouracil (5-FU) was used as a positive control. After 48 h of incubation, 10 µL of MTT solution was added to each well to a final concentration of 2 mg/mL. Plates were then incubated for a further 4 h. After incubation, the MTT solution was removed and 150 µL of DMSO was added to each well for coloration. The plates were shaken vigorously for 10 min at room temperature to ensure complete solubilization. The optical density (OD) was read on a microplate reader (ELx800, BioTek, Highland Park, Winooski, VT, USA) at a wavelength of 492 nm and the data were subsequently analyzed. The percentage of cell growth inhibition was calculated from the following equation: Inhibitory rate (%) = [(1 − (ODtreated-ODblank)/(ODcontrol-ODblank)] × 100.(1)

HCT-116 cells = test: MTT antiproliferative assay, HCT-116; type: cell-based, human; settings: Homo sapiens, HCT-116, 48 h, MTT, mean ± SD, n=3; for inhibition at 100 µM: read-out: % Growth Inhibition at 100 μM HCT-116
Protocol: as §1, §2

BEL-7402 cells = test: MTT antiproliferative assay, BEL-7402; type: cell-based, human; settings: Homo sapiens, Bel-7402, 48 h, MTT, mean ± SD, n=3; for inhibition at 100 µM: read-out: % Growth Inhibition at 100 μM BEL-7402
Protocol: as §1, §2

Row | IC50 (HepG2 cells) | IC50 (HCT-116 cells) | melting point | IC50 (BEL-7402 cells) | SMILES | IC50 (L02 cells) | inhibition at 100 µM (HepG2 cells) | inhibition at 100 µM (HCT-116 cells) | inhibition at 100 µM (BEL-7402 cells)
1 | > 100 µM | 40.4 ± 0.97 µM | 143 to 145 °C | > 100 µM | COC(=O)[C@@H](NC(=O)[C@]1(C)CCC[C@@]2(C)[C@@H]3CC[C@@]4(C)C[C@]3(CC[C@@H]21)CC4=O)c1ccccc1 [Compound 3a, Methyl(S)-2-phenyl-2-((4R,4aS,6aR,9S,11aR,11bS)-4,9,11b-trimethyl-8-oxotetradecahydro-6a,9-methanocyclohepta[a]naphthalene-4-carboxamido)acetate] | > 100 µM | 75.25 ± 0.56% | 86.26 ± 0.59% | 80 ± 0.95%
2 | – | – | 140 to 142 °C | – | C[C@@]12CC[C@@H]3[C@@](CC[C@H]4[C@@]3(C)CCC[C@@]4(C)C(=O)OCC(=O)Nc3ccc(Cl)cc3)(CC1=O)C2 [Compound 4d, 2-((4-chlorophenyl)amino)-2-oxoethyl(4R,4aS,6aR,9S,11aR,11bS)-4,9,11b-trimethyl-8-oxotetradecahydro-6a,9-methanocyclohepta[a]naphthalene-4-carboxylate] | – | 31.9 ± 1.31% | 56.9 ± 2.35% | 52.9 ± 2.11%
3 | – | – | 168 to 169 °C | – | C[C@@]12CC[C@@H]3[C@@](CC[C@H]4[C@@]3(C)CCC[C@@]4(C)C(=O)OCC(=O)Nc3ccccc3F)(CC1=O)C2 [Compound 4e, 2-((2-fluorophenyl)amino)-2-oxoethyl(4R,4aS,6aR,9S,11aR,11bS)-4,9,11b-trimethyl-8-oxotetradecahydro-6a,9-methanocyclohepta[a]naphthalene-4-carboxylate] | – | < 10% | 27.9 ± 0.44% | 38.7 ± 1.52%
4 | – | – | 140 to 141 °C | – | C[C@@]12CC[C@@H]3[C@@](CC[C@H]4[C@@]3(C)CCC[C@@]4(C)C(=O)OCC(=O)Nc3ccc(F)cc3)(CC1=O)C2 [Compound 4g, 2-((4-fluorophenyl)amino)-2-oxoethyl(4R,4aS,6aR,9S,11aR,11bS)-4,9,11b-trimethyl-8-oxotetradecahydro-6a,9-methanocyclohepta[a]naphthalene-4-carboxylate] | – | 39.1 ± 1.13% | 65.6 ± 3.01% | 63 ± 2.13%
5 | – | – | 86 to 88 °C | – | COc1ccc(NC(=O)COC(=O)[C@]2(C)CCC[C@@]3(C)[C@@H]4CC[C@@]5(C)C[C@]4(CC[C@@H]32)CC5=O)cc1 [Compound 4i, 2-((4-methoxyphenyl)amino)-2-oxoethyl(4R,4aS,6aR,9S,11aR,11bS)-4,9,11b-trimethyl-8-oxotetradecahydro-6a,9-methanocyclohepta[a]naphthalene-4-carboxylate] | – | < 10% | 53.1 ± 2.56% | 45.6 ± 1.47%
6 | – | – | 166 to 168 °C | – | COc1ccc(OC)c(NC(=O)COC(=O)[C@]2(C)CCC[C@@]3(C)[C@@H]4CC[C@@]5(C)C[C@]4(CC[C@@H]32)CC5=O)c1 [Compound 4j, 2-((2,5-dimethoxyphenyl)amino)-2-oxoethyl(4R,4aS,6aR,9S,11aR,11bS)-4,9,11b-trimethyl-8-oxotetradecahydro-6a,9-methanocyclohepta[a]naphthalene-4-carboxylate] | – | < 10% | < 10% | 31.3 ± 1.76%

The remaining lines, values behind:

Row | SMILES | IC50 (HepG2 cells) | IC50 (HCT-116 cells) | melting point | IC50 (BEL-7402 cells) | IC50 (L02 cells) | inhibition at 100 µM (HepG2 cells) | inhibition at 100 µM (HCT-116 cells) | inhibition at 100 µM (BEL-7402 cells)
7 | CN(C)CCNC(=O)[C@]1(C)CCC[C@@]2(C)[C@@H]3CC[C@@]4(C)C[C@]3(CC[C@@H]21)CC4=O [Compound 1b, (4R,4aS,6aR,9S,11aR,11bS)-N-(2-(dimethylamino)ethyl)-4,9,11b-trimethyl-8-oxotetradecahydro-6a,9-methanocyclohepta[a]naphthalene-4-carboxamide] | > 100 µM | 24 ± 1.2 µM | 102 to 103 °C | > 100 µM | > 100 µM | 57 ± 2.35% | 76.6 ± 1.78% | 88.5 ± 2.02%
8 | CCN1CCN(C(=O)COC(=O)[C@]2(C)CCC[C@@]3(C)[C@@H]4CC[C@@]5(C)C[C@]4(CC[C@@H]32)CC5=O)CC1 [Compound 2b, 2-(4-ethylpiperazin-1-yl)-2-oxoethyl(4R,4aS,6aR,9S,11aR,11bS)-4,9,11b-trimethyl-8-oxotetradecahydro-6a,9-methanocyclohepta[a]naphthalene-4-carboxylate] | > 100 µM | 30.7 ± 1.98 µM | 115 to 117 °C | > 100 µM | > 100 µM | < 10% | 60.4 ± 1.69% | 64.4 ± 1.66%
9 | C[C@@]12CC[C@@H]3[C@@](CC[C@H]4[C@@]3(C)CCC[C@@]4(C)C(=O)OCC(=O)N3CCN(Cc4ccccc4)CC3)(CC1=O)C2 [Compound 2d, 2-(4-benzylpiperazin-1-yl)-2-oxoethyl(4R,4aS,6aR,9S,11aR,11bS)-4,9,11b-trimethyl-8-oxotetradecahydro-6a,9-methanocyclohepta[a]naphthalene-4-carboxylate] | 11.1 ± 0.55 µM | 18.2 ± 1.26 µM | 149 to 150 °C | 53 ± 1.97 µM | > 100 µM | 70.6 ± 0.89% | 75.4 ± 1.06% | 70.9 ± 1.05%
10 | C[C@@]12CC[C@@H]3[C@@](CC[C@H]4[C@@]3(C)CCC[C@@]4(C)C(=O)OCC(=O)N3CCCCCC3)(CC1=O)C2 [Compound 2e, 2-(azepan-1-yl)-2-oxoethyl(4R,4aS,6aR,9S,11aR,11bS)-4,9,11b-trimethyl-8-oxotetradecahydro-6a,9-methanocyclohepta[a]naphthalene-4-carboxylate] | 20.5 ± 0.46 µM | > 100 µM | 110 to 112 °C | 13.2 ± 0.32 µM | > 100 µM | 50.4 ± 0.57% | 85.6 ± 0.96% | 64.9 ± 1.01%
11 | CCOP(=O)(OCC)C(NC(=O)COC(=O)[C@]1(C)CCC[C@@]2(C)[C@@H]3CC[C@@]4(C)C[C@]3(CC[C@@H]21)CC4=O)c1ccccc1 (stereo partly drawn) [Compound 6a, 2-(((diethoxyphosphoryl)(phenyl)methyl)amino)-2-oxoethyl(4R,4aS,6aR,9S,11aR,11bS)-4,9,11b-trimethyl-8-oxotetradecahydro-6a,9-methanocyclohepta[a]naphthalene-4-carboxylate] | – | – | 156 to 157 °C | – | – | 28 ± 0.99% | 50 ± 2.27% | 33.7 ± 0.91%
12 | CCOP(=O)(OCC)C(NC(=O)COC(=O)[C@]1(C)CCC[C@@]2(C)[C@@H]3CC[C@@]4(C)C[C@]3(CC[C@@H]21)CC4=O)c1ccc(Cl)cc1 (stereo partly drawn) [Compound 6b, 2-(((4-chlorophenyl)(diethoxyphosphoryl)methyl)amino)-2-oxoethyl(4R,4aS,6aR,9S,11aR,11bS)-4,9,11b-trimethyl-8-oxotetradecahydro-6a,9-methanocyclohepta[a]naphthalene-4-carboxylate] | – | – | 149 to 150 °C | – | – | 40.2 ± 2.56% | 50.3 ± 2.31% | 50.4 ± 1.63%
13 | CCOP(=O)(OCC)C(NC(=O)COC(=O)[C@]1(C)CCC[C@@]2(C)[C@@H]3CC[C@@]4(C)C[C@]3(CC[C@@H]21)CC4=O)c1ccc(Cl)c(Cl)c1 (stereo partly drawn) [Compound 6e, 2-(((3,4-dichlorophenyl)(diethoxyphosphoryl)methyl)amino)-2-oxoethyl(4R,4aS,6aR,9S,11aR,11bS)-4,9,11b-trimethyl-8-oxotetradecahydro-6a,9-methanocyclohepta[a]naphthalene-4-carboxylate] | – | – | 168 to 169 °C | – | – | 39.5 ± 1.37% | 43.5 ± 0.56% | 49.9 ± 1.26%
14 | C[C@@]12CC[C@@H]3[C@@](CC[C@H]4[C@@]3(C)CCC[C@@]4(C)C(=O)O)(CC1=O)C2 [Isosteviol, isosteviol, reference compound] | > 100 µM | > 100 µM | – | > 100 µM | > 100 µM | 11.8 ± 0.88% | 34.1 ± 1.89% | 28 ± 1.79%
